Experimental data published in US20180153870A1, “BIPERIDEN FOR TREATING CANCER” (Universitätsklinikum Hamburg-Eppendorf, priority 2015, published 2018).

Legend:
[1] = test system: human Panc-1 tumor cells; experiment: Mouse xenograft model with subcutaneous Panc-1 tumor cells; type: in vivo, pfp−/−/rag2−/− double knockout mice; conditions: for size of the subcutaneous tumor: daily i.p. treatment, 16 mg/kg mepazine; for size of the subcutaneous tumor / tumor sizes compared to the control groups: 10 mg/kg biperiden; for tumor sizes compared to the control groups: daily i.p., 16 mg/kg mepazine or both
From the text: For the mouse xenograft model pfp−/−/rag2−/− double knockout mice were used. […] Owing to the inactivated rag2 gene, the mouse lacks mature T or B lymphocytes. The mouse model was developed by the Taconic Institute (Quality Laboratory Animals and Services for Research, DK8680 Ry, Taconic Europe, Denmark) by crossing the PFPN12 mouse model with the RAGN12 mouse model. This model was back crossed over 12 generations (N12) with C57BL/6NTac, and the colony was maintained by homozygous pairing. The mouse model was used in the course of the present invention with PDAC cells of the cell line Panc-1, which were administered subcutaneously. 12 days after subcutaneous injection of 10^6 human Panc-1 tumor cells, the mice were treated daily either with 16 mg/kg mepazine i.p. (n=10), 10 mg/kg biperiden (n=10) i.p. or with a combination of both active ingredients, that is with 16 mg/kg mepazine and 10 mg/kg biperiden (n=10) i.p. The control group (n=10) was not treated. The daily treatment was performed under identical, standardized conditions. The same 3-days-cycle was used over the complete period of the study: day one comprised the injection of the medication and the determination of the bodyweight by weighing. Day 2 comprised the injection of the medication and the determination of the subcutaneous tumor growth with a caliper. Day 3 comprised the injection of the medication and neuroscoring. […] After euthanizing, the subcutaneous tumors were removed from the mice. Prior to the surgery, the body of the mouse was disinfected with ethanol. The skin above the tumor was carefully incised, and the tumor was surgically removed from the adjacent tissue. After removal, the tumor was weighed and measured. For evaluation only mice were used which had developed a tumor. […] The volumes of the subcutaneous tumors were measured with a caliper after removal and calculated using the formula length× width^2 as described in [8]. […] The average tumor size in the control group was 729.33 mm^3±186.25 mm^3 compared to 130.43 mm^3±63.96 mm^3 in the group that was treated with mepazine (p=0.002; one-sided Fisher's exact test).

[2] = test system: L3.6pl wt; experiment: MTT proliferation assay, L3.6pl wt; type: cell-based, human
Experimental: (§1) The cell lines used for the proliferation assays were cultured in different media. The cell lines Pan-1, Panc-2 and BxPC3, which have been derived from the human ductal pancreatic adenocarcinoma (PDAC), were cultured in Dulbecco's modified Eagle medium (DMEM) (Sigma), that was supplemented with 1% penicillin/streptomycin (Life technologies/GIBCO 15140-122) and 10% fetal bovine serum (Life technologies/GIBCO 100500-064). The cell line L3.6pl was cultured in RPMI 1640 medium (Life technologies/GIBCO 72400-21) that was supplemented with 1% penicillin/streptomycin and 10% fetal bovine serum. […]
(§2) The proliferation rates of the cell lines were determined after stimulation with (i) biperiden, (ii) mepazine, and (iii) stimulation with both active ingredients. […] Next morning, the blanket values were measured at 490 nm in an ELISA reader (FLUOstar Omega, BMG LABTECH) after the addition of 100 μL medium and 20 μL MTT substrate (CellTiter 96 AQueous One Solution Cell Proliferation Assay, Promega). […] The ex-tinction was measured every 24 hours during a period of 72 hours.
(§3) The normal distribution of the results was analyzed by Kolgomorov-Smirnov test and Shapiro-Wilk test. Non-parametric variables were analyzed using the Mann-Whitney-U test. […]

[3] = test system: esophageal carcinoma cell lines OE19, OE33 und KYSE 140; experiment: MTT proliferation assay, esophageal carcinoma cell lines; type: cell-based, human; conditions: OE19, OE33, KYSE 140; concentrations as in Example 1
Experimental: The proliferation rates of the cell lines were determined after stimulation with (i) biperiden, (ii) mepazine, and (iii) stimulation with both active ingredients. For this purpose, cells were seeded in plates with 96 wells at 5000 cells per well and incubated overnight at 37° C. and 5% CO2. Next morning, the blanket values were measured at 490 nm in an ELISA reader (FLUOstar Omega, BMG LABTECH) after the addition of 100 μL medium and 20 μL MTT substrate (CellTiter 96 AQueous One Solution Cell Proliferation Assay, Promega). Biperiden was added in increasing concentrations (3.71 μg/ml, 11.1 μg/ml und 29.6 μg/ml) in the form of solutions of biperiden hydrochloride (B5311 SIGMA-Aldrich, USA) and DMSO. Mepazine was added in increasing concentrations (15 μM and 25 μM) in the form of solutions of mepazine hydrochloride (MALT1 Inhibitor II, Calbiochem Merck, Millipore Billerica, USA). Combinations of both mepazine and biperiden were added in the following concentrations: 15 μM mepazine+3.71 μg/ml biperiden; 25 μM mepazine+3.71 μg/ml biperiden. The ex-tinction was measured every 24 hours during a period of 72 hours. […]

[4] = test system: pancreatic cancer cell lines; experiment: MTT proliferation assay, all pancreatic cancer cell lines; type: cell-based, human; conditions: in the presence of biperiden, mepazine or a combination
Experimental: as §1, §2, §3

[5] = test system: L3.6pl res; experiment: MTT proliferation assay, L3.6pl res (gemcitabine-resistant); type: cell-based, human
Experimental: (§4) The cell lines used for the proliferation assays were cultured in different media. The cell lines Pan-1, Panc-2 and BxPC3, which have been derived from the human ductal pancreatic adenocarcinoma (PDAC), were cultured in Dulbecco's modified Eagle medium (DMEM) (Sigma), that was supplemented with 1% penicillin/streptomycin (Life technologies/GIBCO 15140-122) and 10% fetal bovine serum (Life technologies/GIBCO 100500-064). The cell line L3.6pl was cultured in RPMI 1640 medium (Life technologies/GIBCO 72400-21) that was supplemented with 1% penicillin/streptomycin and 10% fetal bovine serum. A sub-clone of the cell line L3.6pl, that was designated L3.6pl res, was resistant to gemcitabine and was also cultured in RPMI 1640 medium (Life technologies/GIBCO 72400-21) that was supplemented with 1% penicillin/streptomycin, 10% fetal bovine serum and 2 μM gemcitabine (GEMZAR, Lily). The human immortalized, non-malignant cell line of the ductal pancreatic epithelium (HPDE) was cultured in keratinocyte-SFM (Life technologies/GIBCO) that was supplemented with 10% fetal bovine serum, 1% penicillin/streptomycin and 1% epidermal growth factor (EGF).
(§5) The proliferation rates of the cell lines were determined after stimulation with (i) biperiden, (ii) mepazine, and (iii) stimulation with both active ingredients. For this purpose, cells were seeded in plates with 96 wells at 5000 cells per well and incubated overnight at 37° C. and 5% CO2. Next morning, the blanket values were measured at 490 nm in an ELISA reader (FLUOstar Omega, BMG LABTECH) after the addition of 100 μL medium and 20 μL MTT substrate (CellTiter 96 AQueous One Solution Cell Proliferation Assay, Promega). Biperiden was added in increasing concentrations (3.71 μg/ml, 11.1 μg/ml und 29.6 μg/ml) in the form of solutions of biperiden hydrochloride (B5311 SIGMA-Aldrich, USA) and DMSO. […] The ex-tinction was measured every 24 hours during a period of 72 hours.
as §3

[6] = test system: Panc-2; experiment: MTT proliferation assay, Panc-2; type: cell-based, human
Experimental: as §4, §5, §3

With CN1CCCC(CN2c3ccccc3Sc3ccccc32)C1 (stereo not shown) [mepazine] the average tumor size ([1]; Panc-1 xenograft, 16 mg/kg mepazine i.p. daily, ±63.96 mm^3, control 729.33 mm^3±186.25 mm^3, p=0.002) was 130.43 mm^3, the “size of the subcutaneous tumor” value ([1]; Panc-1 xenograft) was “significantly reduced” and the “tumor sizes compared to the control groups” value ([1]; Panc-1 xenograft) was “visibly smaller”. For the same molecule, the “reduction in the proliferation rate” value ([2]; 25 μM mepazine, p=0.004) was 97.9%, the “proliferation of esophageal carcinoma cell lines” value [3] was “inhibited proliferation of esophageal carcinoma cell lines significantly” and the “reduction in the proliferation rate” value [4] was “massive reduction”. The “reduction of proliferation rate” value ([5]; 15 μM mepazine, p=0.031) was 69.4%, the proliferation ([5]; 25 μM mepazine, p=0.002) was “completely stopped” and the “reduction of proliferation rate” value ([6]; 15 μM mepazine, p=0.008) was 56.1%. For the same molecule, the “reduction of proliferation rate” value ([6]; 25 μM mepazine, p=0.001) was 86.9%.

OC(CCN1CCCCC1)(c1ccccc1)C1CC2C=CC1C2 (stereo not shown) [biperiden] was tested, and the “size of the subcutaneous tumor” value ([1]; Panc-1 xenograft) was “significantly reduced”, the “tumor sizes compared to the control groups” value ([1]; Panc-1 xenograft) was “visibly smaller” and the compatibility of administration ([1]; mice, 10 mg/kg biperiden i.p. daily) was “good compatibility”. For the same molecule, the “motor activity compared to mice that received mepazine or no medication” value ([1]; mice, 10 mg/kg biperiden i.p. or 16 mg/kg mepazine and 10 mg/kg biperiden i.p., daily) was “motorically more active”, the “reduction in the proliferation rate” value ([2]; 29.7 μg/ml biperiden, p=0.02) was 96.4% and the “proliferation of esophageal carcinoma cell lines” value [3] was “inhibited proliferation of esophageal carcinoma cell lines significantly”. The “reduction in the proliferation rate” value [4] was “massive reduction”, the “reduction of proliferation rate” value ([5]; 29.6 μg/ml biperiden, p=0.022) was 71.6% and the “reduction of proliferation rate” value ([6]; 29.6 μg/ml biperiden, trend, p=0.077) was 98.2%.
